Experimental data published in patent US7966056B2, “Magnetic resonance imaging method and compounds for use in the method” (GE Healthcare AS, priority 2002, dated 2011).

Legend:
mice = settings: intravenous injection in mice; cited from earlier work
anaesthetised dogs = assay: cardiovascular effects in anaesthetised dogs with and without dobutamine stress (Example 7); format: in vivo; settings: dobutamine alone, 5-20 μg/kg/min infusion
Experimental: The cardiovascular effects of MnHPTA with various amounts of Ca^2+ (0, 0.5 and 1 mol Ca^2+ per mol Mn^2+) were investigated in the presence and absence of dobutamine induced pharmacological stress in anaesthetised dogs.
Anaesthesia was induced with pentobarbital (12-25 mg/kg i.v.) and fentanyl (1.5-2.5 μg/kg i.v.), followed by a continuous i.v. infusion of fentanyl (20 μg/kg/h and pentobarbital (10 mg/kg/h). Artificial ventilation was carried out by room air through a tracheal tube, aimed at achieving normal physiological blood gas values. A catheter was introduced through the right femoral artery for measurement of SAP. A microtip pressure transducer catheter (Millar) was placed into the left ventricle through the carotid artery for measurements of LVdP/dt. A Swan-Ganz catheter was introduced through the right femoral vein for measuring PAP (pulmonary arterial pressure). A 3-lead ECG was continuously-monitored. An ultrasonic flow probe was placed around the left femoral artery for flow measurement. Venflon cannulas were introduced into the left and right jugular veins for contrast agent injections and dobutamine infusions, respectively. […]
Systolic, diastolic and mean systemic arterial pressure (SYS, DIA MEAN), LVdP/dt, femoral arterial flow, mean PAP (pulmonary arterial pressure), HR (heart rate) and ECG were continuously monitored and stored by a computer system.

[1] = maximum solubility in water; format: physicochemical
Source text: In the method according to the invention the contrast agent is preferably administered in a bolus injection although slow injection or infusion of the contrast agent is also suitable. For Mn^2+ complexes with low formation constants, e.g. in the area 10^3 to 10^8 there might be a risk that the release of Mn^2+ from the complex may still be sufficiently rapid to induce cardiotoxic reactions in the body. To avoid such toxic reactions, the contrast agent comprising such complexes could be provided in solutions comprising low concentrations of such complexes. If it is preferred to provide the contrast agent in dry form, e.g. as a lyophilized powder, for on site preparation of the solution for injection, complexes with properties that avoid the preparation of high concentration solutions provide an additional advantage. For example the sodium salt of MnTPP, Na3MP3O10, has a limited solubility, thus prohibiting injections of highly concentrated solutions of manganese. […] This injection volume additionally prohibits rapid bolus injections of sodium salts of MnTPP.

Experimental for myocardium: In an anaesthesed pig, heart rate and systolic/diastolic blood pressure were monitored.
Dobutamine was infused at a dose of 10 μg/kg body weight/min and increased by 10 μg/kg/min every second minute until a PRP (pressure-rate product) of a factor 2.5 was achieved.
10 μmol/kg body weight of MnTPP was injected in a bolus during 4 seconds.
The pig was subjected to imaging at 1.5 T in a clinical scanner. Short axis view images of the myocardium were acquired 45 minutes post injection.

[Ba+2].[Cl-].[Cl-] [BaCl2]
LD50 (mice): 19.2 mg/kg

[Ca+2].[Cl-].[Cl-] [CaCl2]
LD50 (mice): 42.2 mg/kg

CC(CCc1ccc(O)cc1)NCCc1ccc(O)c(O)c1 (stereo not drawn) [Dobutamine, dobutamine]
increase in dP/dt max (anaesthetised dogs): 4 times

O=P([O-])([O-])OP(=O)([O-])OP(=O)([O-])[O-].[Mn+2].[Na+].[Na+].[Na+] [sodium salt of MnTPP]
maximum solubility in water [1]: 23 mM

manganese triphosphate [MnTPP]
clinical signs represented by changes in physiological parameters (myocardium; 10 μmol/kg body weight bolus during 4 seconds, dobutamine stress, anaesthetised pig): No clinical signs represented by changes in physiological parameters were observed
short axis view MR images of the myocardium (myocardium; 10 μmol/kg, 1.5 T, 45 minutes post injection, pig): visualised an underperfused area
